Where two headings read alike, the source gives them in different places.
What was measured:
glucocorticoid receptor = target: T1, glucocorticoid receptor (Homo sapiens, UniProt P04150); details: 45 minutes at 37° C.
T1 sequence (P04150 1-777): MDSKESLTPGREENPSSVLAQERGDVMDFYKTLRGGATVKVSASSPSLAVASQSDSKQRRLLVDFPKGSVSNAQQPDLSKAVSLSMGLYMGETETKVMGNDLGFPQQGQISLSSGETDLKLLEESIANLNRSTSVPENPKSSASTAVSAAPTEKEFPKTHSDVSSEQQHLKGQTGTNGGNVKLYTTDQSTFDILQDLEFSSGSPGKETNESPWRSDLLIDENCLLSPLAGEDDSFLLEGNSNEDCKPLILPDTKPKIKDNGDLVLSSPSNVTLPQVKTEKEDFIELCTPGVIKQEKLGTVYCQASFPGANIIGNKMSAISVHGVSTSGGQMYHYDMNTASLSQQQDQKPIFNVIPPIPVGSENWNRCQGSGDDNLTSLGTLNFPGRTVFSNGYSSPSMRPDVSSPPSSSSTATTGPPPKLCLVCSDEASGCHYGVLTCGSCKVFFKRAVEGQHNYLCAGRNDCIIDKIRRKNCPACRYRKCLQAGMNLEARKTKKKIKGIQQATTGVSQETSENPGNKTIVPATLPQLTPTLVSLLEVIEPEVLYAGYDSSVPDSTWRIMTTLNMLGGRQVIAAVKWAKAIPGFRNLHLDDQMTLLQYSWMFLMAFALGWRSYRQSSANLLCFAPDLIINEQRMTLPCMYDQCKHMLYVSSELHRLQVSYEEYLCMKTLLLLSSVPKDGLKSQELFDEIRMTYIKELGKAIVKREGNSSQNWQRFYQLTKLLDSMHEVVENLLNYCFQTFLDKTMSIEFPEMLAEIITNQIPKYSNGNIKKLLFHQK

[1] = system: primary human dermal fibroblasts (HDF); assay: Fibroblast proliferation assay (2D) in the presence of wound exudate; type: cell-based
Method: Primary human dermal fibroblasts (HDF) were purchased from CELLnTEC, Bern. They were routinely grown in Dulbecco's modified Eagle's medium (DMEM) containing 10% FCS, 2 mM glutamine, and 100 U/ml penicillin/100 μg/ml streptomycin. Media, antibiotics, and glutamine were bought from Lonza. The cells were used at passage 5-15. Cells were trypsinized and seeded at 2500 cells/well in 30 μl into the inner wells of 384-well plates in the absence or presence of graded compound concentrations with or without different dilutions of sterile-filtered WE in medium. For control samples, 30 μl medium was added instead of specific stimuli. The outer wells were loaded with sterile water. The cells were incubated for 72 hours at 37° C.
At the end of the incubation period, supernatants were removed for the determination of IL-1β, and the cells were fixed with 4% paraformaldehyde (Morphisto) for 15 minutes at room temperature and washed 3 times with PBS. A control plate was fixed after the overnight adherence of the cells (day 1) to determine the starting cell number.
Total cellular protein was determined as a measure of cell number by staining the fixed cells with sulforhodamine B (SRB, Sigma). A 0.4% SRB solution in 1% acetic acid was added to the wells for 30 minutes. The wells were then washed with 1% acetic acid until the wash solution remained colorless. After drying, the dye was eluted with 10 mM Tris-HCl, pH8.5, and absorbance was measured either at 550 or 492 nm for lower and higher cell densities, respectively. The average absorbance of the sample representing the day 1 starting cell number was subtracted from the absorbance values of the WE-treated cells.
All experiments were carried out in triplicate for each sample and concentration, and means±standard deviation (SD) were used for the evaluation of the experiment. Results are expressed as percentage of control values for unstimulated cells.

IL-8 [2] = assay: Primary human monocyte cytokine secretion assay (spontaneous IL-8); type: cell-based; details: 16 hours (FIG. 16B)
Method: Primary human monocytes were prepared from peripheral blood mononuclear cells (PBMC). PBMC were isolated from buffy coats obtained from the Red Cross, Vienna, using LymphoPrep (Technoclone). 30 ml of buffy concentrate was diluted 1:2 with PBS, gently underlayered with 15 ml Lymphoprep in a 50 ml Falcon tube and centrifuged for 25 minutes at 1800 rpm at 21° C. The interphase was carefully transferred to a new Falcon tube and filled up to 50 ml with ice cold PBS. After another centrifugation step (10 minutes, 1200 rpm, 4° C.), the cell pellet was washed 3 times with PBS, resuspended in RPMI medium containing 20% FCS and 10% DMSO and frozen in liquid nitrogen. Monocytes were generated from frozen aliquots using positive selection with the CD14 Beads-Kit (Miltenyi) on an autoMACS-Sorter (Miltenyi) according to the manufacturer's instructions.
Cells were seeded at 8×10^5/ml in 50 μl/well of a 384-well plate and combined cells with graded concentrations of test compounds. After 16 hours, the supernatants were transferred to fresh plates and frozen at −20° C. for IL-8 analysis, using a commercial ELISA kit.

IL-8 [3] = assay: U937 cell stimulation assay (LPS-induced IL-8); type: cell-based, human; details: LPS 100 ng/ml, 16 hours (FIG. 16A)
Method: The human monocytic cell line U937 (ATCC CRL 1593) was routinely grown in RPMI_1640 supplemented by 10% FCS and 2 mM glutamine, and 100 U/ml penicillin/100 μg/ml streptomycin. Cells were seeded at 4×10^5/ml in 50 μl/well of a 384-well plate and combined cells with graded concentrations of test compounds and LPS at 100 ng/ml. After 16 hours, the supernatants were transferred to fresh plates and frozen at −20° C. for IL-8 analysis, using a commercial ELISA kit.

Structure (SMILES): Cc1ccc2c(NC[C@](O)(CC(C)(C)c3cc(F)cc4c3OCC4)C(F)(F)F)cccc2n1 [Mapracorat]
- localization of the glucocorticoid receptor (glucocorticoid receptor; 0.1 nM): N/C
- localization of the glucocorticoid receptor (glucocorticoid receptor; 1 nM): N
- localization of the glucocorticoid receptor (glucocorticoid receptor; 100 nM): N
- localization of the glucocorticoid receptor (glucocorticoid receptor; 10 nm): N
- effect on fibroblast proliferation in the presence of >80 human wound exudates ([1]; >80 human wound exudates from chronic wound patients): > 120%
- fibroblast proliferation (2D) with wound exudate ([1]; WE-4 (FIG. 5), graded concentrations): dose-dependently reversed inhibition of wound exudate (WE)-induced fibroblast proliferation
- spontaneous IL-8 secretion in human monocytes (IL-8 [2]): inhibited both LPS-induced and spontaneous IL-8 secretion
- LPS-induced IL-8 secretion in U937 cells (IL-8 [3]): inhibited both LPS-induced and spontaneous IL-8 secretion

Source: patent US12496304B2, “Selective glucocorticoid receptor modifiers for treating impaired skin wound healing” (AKRIBES BIOMEDICAL GMBH, priority 2019, dated 2025)
